Reference: patent publication US7033773B1, “Screening assays for G protein coupled receptor agonists and antagonists” (The General Hospital Corporation, priority 1997, dated 2006)
Where two headings read alike, the source gives them in different places. Where a SMILES comes first, the peptide text is derived from it. [ ]: non-standard residue; d: D form. Nle = CCCC[C@H](N)C(=O)O

What was measured:
[1] = target: T1, human PTH/PTHrP receptor (Homo sapiens, UniProt Q03431); experiment: Urokinase-type plasminogen activator (u-PA) secretion bioassay in LLC-PK1 cells expressing human PTHR; settings: AB45 cells (hPTHR + REV AB dominant-negative PKA inhibitor), 16 hr
T1 sequence (Q03431 27-593): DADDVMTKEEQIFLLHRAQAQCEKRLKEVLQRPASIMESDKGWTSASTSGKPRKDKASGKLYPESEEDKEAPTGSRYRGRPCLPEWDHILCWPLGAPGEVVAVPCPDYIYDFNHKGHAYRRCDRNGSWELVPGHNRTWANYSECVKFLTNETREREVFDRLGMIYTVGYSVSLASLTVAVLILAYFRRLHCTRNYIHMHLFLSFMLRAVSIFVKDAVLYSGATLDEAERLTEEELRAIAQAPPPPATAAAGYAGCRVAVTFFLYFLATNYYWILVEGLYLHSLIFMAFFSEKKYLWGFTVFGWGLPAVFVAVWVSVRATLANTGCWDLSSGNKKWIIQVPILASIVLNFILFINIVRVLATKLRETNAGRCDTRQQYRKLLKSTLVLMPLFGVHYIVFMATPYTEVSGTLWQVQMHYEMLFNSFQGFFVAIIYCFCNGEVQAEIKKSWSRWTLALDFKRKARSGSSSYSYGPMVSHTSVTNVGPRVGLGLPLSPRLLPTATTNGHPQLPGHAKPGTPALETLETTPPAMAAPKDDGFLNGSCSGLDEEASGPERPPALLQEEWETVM
Procedure: Cells were seeded into 96-well plates at a density of 6×10^4 cells/well and used the following day. The cells were washed once with 0.2 ml and then refed with 0.1 ml of prewarmed DMEM containing 0.05% BSA. After adding each stimulator, plates were returned to the incubator at 37° C. for 16 h. Conditioned medium (5 ul) then was transferred from each well to a clean microplate. […] Activity was expressed in Ploug units/well, using purified human urokinase (Calbiochem) as a standard.
Cells were incubated with the indicated peptides (1000 nM) for 16 hr before measurement of secreted u-PA present in the medium, which was expressed as a percentage of the activity measured in vehicle-treated controls. Values shown are means±SEM of triplicate determinations.

[2] = tested on: human PTH/PTHrP receptor; experiment: Cytosolic free calcium (fura-2) in LLC-PK1 cells expressing human PTHR; settings: other experiments, hPTHR-expressing LLC-PK1 cells
Procedure: Cytosolic free calcium was measured in fura 2AM-loaded confluent monolayers of cells.
Cytosolic free calcium was measured by dual fluorescence in cells loaded with the Ca^2+-sensitive intracellular probe fura-2. Cells were seeded onto glass coverslips at a density of 40,000-600,000/cm^2 and incubated for 2 days as described above. Coverslips were washed twice with PBS before loading in phosphate-free Buffer B containing 4 uM of fura-2/AM (Molecular Probes, Eugene, Oreg.) for 30 min at room temperature (22° C.). After washing twice with fura-free Buffer B, the coverslips were mounted in a cuvette containing 2 ml of phosphate-free Buffer B at 37° C. and the emission at 510 nm in response to alternating excitation at 340 and 380 nm was monitored using a ratiometric PTI Deltascan fluorescence spectrometer with excitation and emission bandwidths of 2 nm. After achieving a stable baseline, agonists were introduced by exchange into 2 ml of fresh buffer to which 10-20 ul of concentrated agonist stock (or vehicle alone) had been added. Peptide stocks were prepared in 0.1% trifluoroacetic acid, ionomycin and phorbol esters were dissolved in dimethyl sulfoxide and all other additives were prepared in water. Maximum and minimum fluorescence signals were obtained by exposure to modified buffers containing 1 uM ionomycin plus 20 mM calcium or 2 mM EGTA in the nominal absence of calcium, respectively, and autofluorescence was estimated from signals obtained in the presence of ionomycin plus 2.5 mM MnCl2.

[3] = target: T1, human PTH/PTHrP receptor; experiment: Competitive radioligand (Scatchard) binding to human PTH/PTHrP receptors stably expressed in LLC-PK1 cells; design: transfected with a full-length human PTH/PTHrP receptor cDNA; expressed in transfected cells; settings: Scatchard analysis, read-out: Apparent Kd
Procedure: FIGS. 1A-1B and 1C-1D. Competitive radioligand binding to human PTH/PTHrp receptors stably expressed in LLC-PK1 cells. LLC-PK1 cells stably expressing (FIGS. 1A-1B) 950,000 receptors/cell (HKRK B7) or (FIGS. 1C-1D) 280,000 receptors/cell (HKRK B28) were incubated with ^125I-[Nle^8,18,Tyr^34]bPTH(1-34) in binding buffer for 6 hr at 15° C. in the presence or absence of increasing concentrations of nonradioactive ligand. Scatchard plots are shown in the insets. Each point represents the mean± of triplicate determinations. Total radioligand bound ranged from 15,000-30,000 cpm/well, and nonspecific binding was 2-5% of total binding.
(§1) In brief, the cells were seeded into 24-well plates at a density of 2.5×10^5 cells/well and cultured for a further 2 days before study. Cell layers were rinsed with ice-cold Buffer A [50 mM Tris-HCl (pH 7.7), 100 mM NaCl, 2 mM CaCl2, 5 mM KCl, 0.5% FBS, and 5% heat-inactivated horse serum] and then incubated with ^125I-labeled [Nle^8,18, Tyr^34]bovine (b) PTH(1-34) (1×10^5 cpm/well), with or without unlabeled peptide, in 0.5 ml of Buffer A for 6 h in the cold room (2-8° C.). […] All reagents, unless otherwise specified, were obtained from Sigma (St. Louis, Mo.), and all isotopes were purchased from Dupont-New England Nuclear (Boston, Mass.).
Radioligand competition assays and Scatchard analyses for two representative cell lines, HKRK B7 and HKRK B28, which express 950,000 and 280,000 hPTHRs per cell, respectively, are shown in FIGS. 1A-1D. […] In each case, the Scatchard analysis was linear, consistent with a single class of high affinity binding sites. The subsequent example described below was conducted with two cell lines, which were chosen as representative of those expressing relatively high (HKRK B7) and low (HKRK B28) densities of hPTHRs, respectively.

[4] = target: T2, rat PTHR (Rattus norvegicus, UniProt P25961); experiment: Competitive radioligand (Scatchard) binding to rat PTHRs expressed in LLC-PK1 cells; settings: Scatchard analysis, read-out: Apparent Kd
T2 construct: expressed in transfected cells; host or cells: LLC-PK1 porcine renal epithelial cells (EW5; also EW29, AR-C38, AR-B44)
T2 sequence (P25961 27-591): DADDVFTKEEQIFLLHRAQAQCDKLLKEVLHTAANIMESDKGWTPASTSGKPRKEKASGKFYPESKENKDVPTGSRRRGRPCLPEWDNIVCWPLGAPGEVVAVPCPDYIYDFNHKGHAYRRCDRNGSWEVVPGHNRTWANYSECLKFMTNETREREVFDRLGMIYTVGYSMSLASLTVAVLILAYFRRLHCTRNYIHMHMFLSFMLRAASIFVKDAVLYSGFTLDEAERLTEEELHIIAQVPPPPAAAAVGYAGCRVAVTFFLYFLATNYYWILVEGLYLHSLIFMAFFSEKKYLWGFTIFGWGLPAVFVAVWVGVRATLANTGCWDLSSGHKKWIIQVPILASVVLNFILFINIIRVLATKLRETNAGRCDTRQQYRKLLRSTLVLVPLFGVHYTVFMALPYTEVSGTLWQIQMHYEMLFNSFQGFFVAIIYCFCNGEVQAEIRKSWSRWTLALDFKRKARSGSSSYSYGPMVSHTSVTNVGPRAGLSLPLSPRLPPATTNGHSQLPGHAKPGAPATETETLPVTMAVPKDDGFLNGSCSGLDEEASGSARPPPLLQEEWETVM
Procedure: as §1

## CCCCCCCCCCCCCC(=O)O[C@@H]1[C@@H](C)[C@@]2(O)[C@@H](C=C(CO)C[C@]3(O)C(=O)C(C)=C[C@@H]23)[C@H]2C(C)(C)[C@]12OC(C)=O [TPA]
[1]
  u-PA response in cAMP-resistant cells (in words): well-maintained
[2]
  calcium responses to PKA/PKC activators: failed to elicit calcium responses

## CCCC[C@H](NC(=O)[C@H](CO)NC(=O)[C@H](CO)NC(=O)[C@H](CC(C)C)NC(=O)[C@H](Cc1c[nH]cn1)NC(=O)[C@H](CCCCN)NC(=O)CNC(=O)[C@H](CC(C)C)NC(=O)[C@H](CC(N)=O)NC(=O)[C@H](Cc1c[nH]cn1)NC(=O)[C@H](CCCC)NC(=O)[C@H](Cc1ccccc1)NC(=O)[C@H](CCC(N)=O)NC(=O)[C@@H](NC(=O)[C@H](CCC(=O)O)NC(=O)[C@H](CO)NC(=O)[C@@H](NC(=O)[C@H](C)N)C(C)C)[C@@H](C)CC)C(=O)N[C@@H](CCC(=O)O)C(=O)N[C@@H](CCCNC(=N)N)C(=O)N[C@H](C(=O)N[C@@H](CCC(=O)O)C(=O)N[C@@H](Cc1c[nH]c2ccccc12)C(=O)N[C@@H](CC(C)C)C(=O)N[C@@H](CCCNC(=N)N)C(=O)N[C@@H](CCCCN)C(=O)N[C@@H](CCCCN)C(=O)N[C@@H](CC(C)C)C(=O)N[C@@H](CCC(N)=O)C(=O)N[C@@H](CC(=O)O)C(=O)N[C@H](C(=O)N[C@@H](Cc1c[nH]cn1)C(=O)N[C@@H](CC(N)=O)C(=O)N[C@@H](Cc1ccc(O)cc1)C(N)=O)C(C)C)C(C)C [[Nle^8,18, Tyr^34]bPTH(1-34), [Nle^8,18, Tyr^34]bovine (b) PTH(1-34)] (H-AVSEIQF[Nle]HNLGKHLSS[Nle]ERVEWLRKKLQDVHNY-NH2; N-terminus assumed)
[3]; HKRH C58 cells, 1030 x10^3 receptors/cell
  Kd: 3.6 nM
[3]; HKRK B5 cells, 840 x10^3 receptors/cell
  Kd: 3.9 nM
[3]; HKRK B7 cells, 950 x10^3 receptors/cell
  Kd: 4.5 nM
[3]; HKRK B28 cells, 280 x10^3 receptors/cell
  Kd: 1.8 nM
[3]; HKRK B54 cells, 1020 x10^3 receptors/cell
  Kd: 6.4 nM
[3]; HKRK B57 cells, 900 x10^3 receptors/cell
  Kd: 5.6 nM
[3]; HKRK B64 cells, 90 x10^3 receptors/cell
  Kd: 1.3 nM
[3]; HKRK C27 cells, 340 x10^3 receptors/cell
  Kd: 2.2 nM
[3]; HKRK C30 cells, 600 x10^3 receptors/cell
  Kd: 2.8 nM
[3]; HKRK C53 cells, 120 x10^3 receptors/cell
  Kd: 1.2 nM
[3]; HKRK C101 cells, 330 x10^3 receptors/cell
  Kd: 1.6 nM
[4]; EW5 cells, 320 x10^3 rat receptors/cell
  Kd: 2.3 nM
[4]; EW29 cells, 190 x10^3 rat receptors/cell
  Kd: 2.5 nM
